# Test results: ChEMBL document CHEMBL5335870, “Discovery of Hepatitis B Virus Surface Antigen Suppressor GS-8873” (ACS Med Chem Lett, 2024)
# How the values were obtained:
# [1] = Half life in Beagle dog at 0.5 mg/kg, iv; assay type: ADME, organism-based, Canis lupus familiaris; details: in vivo
# [2] = Clearance in Sprague-Dawley rat at 1 mg/kg, iv; assay type: ADME, organism-based; details: in vivo
# [3] = Half life in Cynomolgus monkey at 0.4 mg/kg, iv; assay type: ADME, organism-based, Macaca fascicularis; details: in vivo
# [4] = Oral bioavailability in Sprague-Dawley rat after 24 hrs by LC/MS/MS method; assay type: ADME, organism-based; details: in vivo
# [5] = Oral bioavailability in Beagle dog at 0.5 mg/kg; assay type: ADME, organism-based, Canis lupus familiaris; details: in vivo
# [6] = Oral bioavailability in Sprague-Dawley rat at 3 mg/kg; assay type: ADME, organism-based; details: in vivo
# [7] = Clearance in Beagle dog at 0.5 mg/kg, iv; assay type: ADME, organism-based, Canis lupus familiaris; details: in vivo
# [8] = Volume of distribution at steady state in Beagle dog at 0.5 mg/kg, iv; assay type: ADME, organism-based, Canis lupus familiaris; details: in vivo, read-out: Vdss
# [9] = MRT in Cynomolgus monkey at 0.4 mg/kg, iv; assay type: ADME, organism-based, Macaca fascicularis; details: in vivo
# [10] = AUC (0 to infinity) Beagle dog at 0.5 mg/kg, iv; assay type: ADME, organism-based, Canis lupus familiaris; set-up: dose 0.5 mg/kg, route iv; details: in vivo
# [11] = Clearance in Rhesus monkey at 0.5 mg/kg, iv; assay type: ADME, organism-based, Macaca mulatta; details: in vivo
# [12] = MRT in Beagle dog at 0.5 mg/kg, iv; assay type: ADME, organism-based, Canis lupus familiaris; details: in vivo
# [13] = Clearance in Sprague-Dawley rat at […], iv measured after 24 hrs by LC/MS/MS method; assay type: ADME, organism-based; details: in vivo
# [14] = AUC (0 to infinity) Rhesus monkey at 0.5 mg/kg, iv; assay type: ADME, organism-based, Macaca mulatta; set-up: dose 0.5 mg/kg, route iv; details: in vivo
# [15] = Volume of distribution at steady state in Sprague-Dawley rat at 1 mg/kg, iv; assay type: ADME, organism-based; details: in vivo, read-out: Vdss
# [16] = Volume of distribution at steady state in Rhesus monkey at 0.5 mg/kg, iv; assay type: ADME, organism-based, Macaca mulatta; details: in vivo, read-out: Vdss
# [17] = Clearance in Cynomolgus monkey at 0.4 mg/kg, iv; assay type: ADME, organism-based, Macaca fascicularis; details: in vivo
# [18] = Half life in Rhesus monkey at 0.5 mg/kg, iv; assay type: ADME, organism-based, Macaca mulatta; details: in vivo
# [19] = Oral bioavailability in Cynomolgus monkey at 0.5 mg/kg; assay type: ADME, organism-based, Macaca fascicularis; details: in vivo
# [20] = MRT in Sprague-Dawley rat at 1 mg/kg, iv; assay type: ADME, organism-based; details: in vivo
# [21] = Half life in Sprague-Dawley rat at 1 mg/kg, iv; assay type: ADME, organism-based; details: in vivo
# [22] = AUC (0 to infinity) Cynomolgus monkey at 0.4 mg/kg, iv; assay type: ADME, organism-based, Macaca fascicularis; set-up: dose 0.4 mg/kg, route iv; details: in vivo
# [23] = AUC (0 to infinity) Sprague-Dawley rat at 1 mg/kg, iv; assay type: ADME, organism-based; set-up: dose 1 mg/kg, route iv; details: in vivo
# [24] = Volume of distribution at steady state in Cynomolgus monkey at 0.4 mg/kg, iv; assay type: ADME, organism-based, Macaca fascicularis; details: in vivo, read-out: Vdss
# Hepatitis B virus = test: Antiviral activity against genotype D HBV infected in sodium taurocholate co-transporting polypeptide receptor-expressing stable HepG2 cell line assessed as suppression of HBsAg level incubated for 5 days by multiplex chemiluminescent MSD assay; assay type: functional, organism-based; details: HepG2, 120 h
compound,measurement,setting,value
COCCCOc1cc2c(cc1COC)-c1cc(=O)c(C(=O)O)cn1N1[C@@H]2CCC1(C)C,half-life,[1],5.1 h
same,clearance,[2],4.5 mL/min/kg
same,half-life,[3],6.7 h
same,bioavailability,[4],91%
same,bioavailability,[5],94%
same,bioavailability,[6],91%
same,clearance,[7],4 mL/min/kg
same,Vd,[8],0.85 L/kg
same,MRT,[9],8.1 h
same,AUC(0-inf),[10],4.91 µM·h
same,clearance,[11],3 mL/min/kg
same,MRT,[12],3.6 h
same,clearance,[13],4.5 mL/min/kg
same,AUC(0-inf),[14],6.41 µM·h
same,Vd,[15],0.69 L/kg
same,Vd,[16],1.14 L/kg
same,clearance,[17],2.5 mL/min/kg
same,half-life,[18],5.5 h
same,bioavailability,[19],91%
same,MRT,[20],2.6 h
same,half-life,[21],2.5 h
same,AUC(0-inf),[22],5.93 µM·h
same,AUC(0-inf),[23],8.44 µM·h
same,Vd,[24],1.23 L/kg
same,EC50,Hepatitis B virus,4 nM
